# From US8053577B2, “Derivatives of 5,9-methanocycloocta[b]pyridin-2-(1H)-one, their preparation and use as analgesics” (priority 2006, dated 2011)
# Legend:
# [1] = Acute toxicity (LD50) in mice; conditions: mouse, in vivo, oral administration
# Excerpt: In view of the above-described problems, this invention relates to a series of analgesic 5,9-methanocycloocta[b]pyridin-2(H)-one derivatives.
# The compounds of Formula I release huperzine A after p.o. administration. The amount of huperzine A released in artificial gastric fluid at various time intervals after administration of (5R,9R,11E)-5-(3-phenylprop-2-en-1-ylideneamino)-11-ethylidene-5,6,9,10-tetrahydro-7-methyl-5,9-methanocycloocta[b]pyridin-2(1H)-one is listed in Table 2. […] Accordingly, (5R,9R,11E)-5-(3-phenylprop-2-en-1-ylideneamino)-11-ethylidene-5,6,9,10-tetrahydro-7-methyl-5,9-methanocycloocta[b]pyridin-2(1H)-one is a pro-drug of huperzine A, and releases huperzine A in a sustained fashion. Sustained release of huperzine A can well explain lower toxicity of compounds of Formula I compared with Huperzine A (see Table 1).
# [2] = system: mice; experiment: Analgesic effect of intragastric administration on mice measured with hot-plate test; assay type: in vivo, ICR mice; conditions: x ± s, n = 10; for pain-threshold after administration / pain-threshold before administration: time course; for pain-threshold before administration / pain threshold before administration: baseline; for pain threshold after administration / pain threshold before administration: Table 3 screening; for pain threshold after administration: 1 hour; for pain threshold before administration: group dosed 0.6 mg/kg intragastric
# Experimental: The analgesic effect with a single dose of the compounds represented by Formula I is preliminarily screened at single time point through hot-plate test, with fortanodyn and aspirin as positive controls. All of the compounds are administered intragastrically.
# On the basis of preliminary screening results, several representative compounds were selected to test their analgesic duration, and a part of the results is listed in Table 4. The results illustrate that the analgesic duration of most compounds is longer than 2 hours after a single oral administration, and that some of the compounds have analgesic duration lasting longer than 4 hours.
# Furthermore, the dose-effect relationship on an analgesic model of two compounds was tested and the results are shown in Table 5.
# Analgesic effect of intragastric administration on mice measured with hot-plate test
# Female ICR mice, weight 20+2 g, were purchased from Department of Laboratory Animal Science, Beijing University, animal license number: SCXK 2002-0001.
# A) Samples: samples were prepared as mixtures with 0.9% NaCl solution for intragastric administration to mice.
# B) Fortanodyn: 30 mg/pill (TianJin LiSheng Pharmaceutical Co. Ltd, lot number: 0201001), 1.5 mg/mL solution was prepared with 0.9% NaCl solution for intragastric administration to mice.
# 1) Hot-plate test on mice was employed. A thermostatic water bath was adjusted at 55±0.5° C., the bottom of metal plates contacted water surface and used as stimuli after heating. The time span(s) from the point when the mouse was placed onto the hot-plate to the time when the mouse started to lick its metapedes was determined as its pain threshold, which was recorded by stopwatch. Female mice with a weight of 20±2 g were used. The pain threshold of every mouse was measured twice before administration, and the qualified mice are the ones whose average pain threshold was less than 30 seconds.
# The qualified mice were randomly grouped with 10 mice in each group. The pain threshold before administration was determined as the basic pain threshold. To the medication administration team, drugs of different dose were given through intragastric administration, whereas to the control group, 0.9% NaCl solution was given. The administration volume was 0.2 mL for every 10 g body weight. The pain threshold of each group was measured at 1 hour after administration.
# After administration the pain threshold of each group at different time was measured. The experimental data was statistically treated with t-test using SPSS10 statistics software.
smiles,measurement,setting,value
"C/C=C1\[C@H]2C=C(C)C[C@]1(N)c1ccc(=O)[nH]c1C2 [Example 1, (5R,9R,11E)-5-amino-11-ethylidene-5,6,9,10-tetrahydro-7-methyl-5,9-methanocycloocta[b]pyridin-2(1H)-one, reference compound]",LD50,[1],3.8 mg/kg
"C/C=C1\[C@H]2C=C(C)C[C@]1(/N=C/C=C/c1ccc(Cl)cc1)c1ccc(=O)[nH]c1C2 [Example 14, (5R,9R,11E)-5-(3-(4-chlorophenyl)prop-2-en-1-ylideneamino)-11-ethylidene-5,6,9,10-tetrahydro-7-methyl-5,9-methanocycloocta[b]pyridin-2(1H)-one]",pain-threshold after administration,"[2]; 0.81 mg/kg intragastric, 30 min",47.9 ± 12.95 s
same,pain-threshold after administration,"[2]; 0.81 mg/kg intragastric, 60 min",45.9 ± 15.42 s
same,pain-threshold after administration,"[2]; 0.81 mg/kg intragastric, 120 min",31.0 ± 12.04 s
same,pain-threshold after administration,"[2]; 0.81 mg/kg intragastric, 180 min",25.1 ± 8.10 s
same,pain-threshold after administration,"[2]; 0.81 mg/kg intragastric, 240 min",26.2 ± 9.69 s
same,pain-threshold before administration,[2]; group dosed 0.81 mg/kg intragastric,12.6 ± 4.25 s
same,LD50,[1],35.6 mg/kg
"C/C=C1\C2C=C(C)CC1(/N=C/C=C/c1cccc3ccccc13)c1ccc(=O)[nH]c1C2 [Example 23, (5R,9R,11E)-5-(3-(naphthalen-1-yl)prop-2-en-1-ylideneamino)-11-ethylidene-5,6,9,10-1,7-dimethyl-5,9-methanocycloocta[b]pyridin-2(1H)-one]",pain-threshold after administration,"[2]; 0.84 mg/kg intragastric, 30 min",23.3 ± 7.45 s
same,pain-threshold after administration,"[2]; 0.84 mg/kg intragastric, 60 min",28.1 ± 10.15 s
same,pain-threshold after administration,"[2]; 0.84 mg/kg intragastric, 120 min",14.9 ± 5.02 s
same,pain-threshold after administration,"[2]; 0.84 mg/kg intragastric, 180 min",13.7 ± 2.98 s
same,pain-threshold before administration,[2]; group dosed 0.84 mg/kg intragastric,12.3 ± 3.86 s
same,LD50,[1],43.2 mg/kg
"C/C=C1\[C@H]2C=C(C)C[C@]1(/N=C/C=C/c1cccc(Cl)c1)c1ccc(=O)[nH]c1C2 [Example 15, (5R,9R,11E)-5-(3-(3-chlorophenyl)prop-2-en-1-ylideneamino)-11-ethylidene-5,6,9,10-tetrahydro-7-methyl-5,9-methanocycloocta[b]pyridin-2(1H)-one]",pain threshold after administration,[2]; 0.6 mg/kg intragastric,28.8 ± 3.92 s
same,pain threshold before administration,[2],13.0 ± 3.63 s
"C/C=C1\[C@H]2C=C(C)C[C@]1(/N=C/C=C/c1ccccc1C)c1ccc(=O)[nH]c1C2 [Example 5, (5R,9R,11E)-5-(3-(2-methylphenyl)prop-2-en-1-ylideneamino)-11-ethylidene-5,6,9,10-tetrahydro-7-methyl-5,9-methanocycloocta[b]pyridin-2(1H)-one]",pain threshold after administration,[2]; 0.6 mg/kg intragastric,27.6 ± 6.22 s
same,pain threshold before administration,[2],12.8 ± 3.12 s
"C/C=C1\[C@H]2C=C(C)C[C@]1(/N=C/C=C/c1ccccc1)c1ccc(=O)[nH]c1C2 [Example 2, (5R,9R,11E)-5-(3-phenylprop-2-en-1-ylideneamino)-11-ethylidene-5,6,9,10-tetrahydro-7-methyl-5,9-methanocycloocta[b]pyridin-2(1H)-one]",pain-threshold after administration,"[2]; 0.73 mg/kg intragastric, 30 min",34.0 ± 11.42 s
same,pain-threshold after administration,"[2]; 0.73 mg/kg intragastric, 60 min",36.5 ± 10.91 s
same,pain-threshold after administration,"[2]; 0.73 mg/kg intragastric, 120 min",29.0 ± 7.83 s
same,pain-threshold after administration,"[2]; 0.73 mg/kg intragastric, 180 min",24.0 ± 5.44 s
same,pain-threshold after administration,"[2]; 0.73 mg/kg intragastric, 240 min",18.3 ± 5.31 s
same,LD50,[1],26.5 mg/kg
"C/C=C1\[C@H]2C=C(C)C[C@]1(/N=C/C=C/c1cccc(C)c1)c1ccc(=O)[nH]c1C2 [Example 4, (5R,9R,11E)-5-(3-(3-methylphenyl)prop-2-en-1-ylideneamino)-11-ethylidene-5,6,9,10-tetrahydro-7-methyl-5,9-methanocycloocta[b]pyridin-2(1H)-one]",pain threshold after administration,[2]; 0.6 mg/kg intragastric,27.0 ± 5.40 s
same,pain threshold before administration,[2],12.2 ± 3.31 s
"CC(=O)Oc1ccccc1C(=O)O [Aspirin, reference compound]",pain threshold after administration,[2]; 100 mg/kg intragastric,18.2 ± 3.71 s
same,pain-threshold after administration,"[2]; 100 mg/kg intragastric, 30 min",18.1 ± 5.40 s
same,pain-threshold after administration,"[2]; 100 mg/kg intragastric, 60 min",18.0 ± 3.80 s
same,pain-threshold after administration,"[2]; 100 mg/kg intragastric, 120 min",14.0 ± 3.63 s
same,pain-threshold after administration,"[2]; 100 mg/kg intragastric, 180 min",14.3 ± 3.62 s
"C/C=C1\[C@H]2C=C(C)C[C@]1(/N=C/C=C/c1ccccc1Br)c1ccc(=O)[nH]c1C2 [Example 12, (5R,9R,11E)-5-(3-(2-bromophenyl)prop-2-en-1-ylideneamino)-11-ethylidene-5,6,9,10-tetrahydro-7-methyl-5,9-methanocycloocta[b]pyridin-2(1H)-one]",pain threshold after administration,[2]; 0.6 mg/kg intragastric,19.6 ± 4.03 s
same,pain threshold before administration,[2],12.4 ± 2.58 s
"C/C=C1\[C@H]2C=C(C)C[C@]1(/N=C/C=C/C=C/C=C/c1ccccc1)c1ccc(=O)[nH]c1C2 [Example 9, (5R,9R,11E)-5-(7-phenylhepta-2,4,6-trien-1-ylideneamino)-11-ethylidene-5,6,9,10-tetrahydro-7-methyl-5,9-methanocycloocta[b]pyridin-2(1H)-one]",pain threshold after administration,[2]; 0.6 mg/kg intragastric,25.8 ± 4.35 s
same,pain threshold before administration,[2],12.4 ± 2.58 s
